Article PMC8803738, “Impact of the mouse model and molar amount of injected ligand on the tissue distribution profile of PSMA radioligands” (European Journal of Nuclear Medicine and Molecular Imaging, 2021)
Like-named read-outs stand apart in the source and are kept apart here.

Legend:
[1] = test system: PC-3 PIP/flu or LNCaP tumor-bearing mice; assay: Biodistribution, comparison or ranges over both PC-3 PIP and LNCaP tumor mouse models; assay type: in vivo
Procedure: (§1) Male BALB/c nude mice were subcutaneously inoculated on the right shoulder with LNCaP tumor cells (5 × 10^6 cells in PBS mixed with Matrigel (20 mg/mL, BD Biosciences) at a ratio of 3 to 1 (v/v) to a total volume of 200 μL per mouse). Biodistribution and SPECT/CT imaging studies with both tumor xenograft models were performed when the tumors reached a volume of 100–300 mm^3.
(§2) [^177Lu]Lu-Ibu-DAB-PSMA (5 MBq, 100 µL) and [^177Lu]Lu-PSMA-617 (5 MBq, 100 µL) were diluted in saline containing 0.05% bovine serum albumin (BSA) to prevent adherence of the radioligands to the syringe. The radioligands were intravenously injected at a ligand amount of 0.05 nmol or 1.0 nmol per mouse. The number of mice per setting was commonly n = 3 and, in case of inconclusive results, additional mice up to a total of n = 6 were included. The mice were sacrificed at 4 h, 24 h, or 48 h post injection (p.i.) and selected tissues and organs were collected, weighed, and counted in a γ-counter (Supplementary Material). The data sets were analyzed for significance using a one-way ANOVA with Sidak’s multiple comparison post-test using the GraphPad Prism software (version 8). A p value of < 0.05 was considered statistically significant. Tumor-to-kidney and tumor-to-blood ratios were calculated for all investigated timepoints after injection of each radioligand.

[2] = test system: PC-3 PIP/flu tumor-bearing mice; assay: Biodistribution in PC-3 PIP/flu tumor-bearing mice; assay type: in vivo, mouse; details: for AUCTu(0→48 h)-to-AUCKi(0→48 h) ratio: PC-3 PIP model (female mice); for AUCTu(0→48 h)-to-AUCKi(0→48 h) ratio / AUC0→48h, Kidneys / AUC0→48h, PC-3 PIP tumor: average ± SE, non-decay-corrected
Procedure: as §1, §2
Time-activity curves over the first 48 h after injection of the radioligands were determined for the PC-3 PIP tumor, the LNCaP tumor, and the kidneys of the corresponding xenograft model based on non-decay-corrected time-dependent biodistribution data obtained at 4 h, 24 h, and 48 h p.i. This allowed calculating the areas under the curve (AUC0→48 h) using the GraphPad Prism software (version 8) (Supplementary Material). The tumor-to-kidney AUC0→48 h ratios were calculated for both xenograft models.
3. Biodistribution studies
Purpose: The impact of the tumor mouse model and the injected ligand amount on the biodistribution of [177Lu]Lu-Ibu-DAB-PSMA and [177Lu]Lu-PSMA-617 was investigated.
Methods: The biodistribution studies were conducted with either PC-3 PIP/flu or LNCaP tumor-bearing mice injected with either 0.05 nmol or 1.0 nmol of radioligand per mouse, whereas the applied activity was kept constant for each setting. The results were decay-corrected and the values indicated as average ± SD obtained from each gr oup of mice (n = 3−6) and listed as percentage of injected activity per gra m tissue [% IA/g].
Results: The results are listed below (Table S1–S4) and described and discussed in the main article.
Table S1 Decay -corrected biodistribution data of [177Lu]Lu-Ibu-DAB-PSMA in PC-3 PIP/flu tumor-bearing mice injected with either 0. 05 nmol or 1.0 nmol per mouse. The values are indicated as average ± SD obtained from each group of mice (n = 3−6) and listed as percentage of injected activity per gram […]
Dissection time 4 h p.i. 24 h p.i. 48 h p.i. […]
a Data obtained with 1.0 nmol [177Lu]Lu-Ibu-DAB-PSMA were reproduced from Deberle et al. […]
radioligands in order to be able to judge the changes in activity uptake in the tumor and kidney s as a consequence of the tumor model and the injected amount of ligand, respectively.
Methods: T he time-activity curves over the first 48 h after injection were determined for the PC-3 PIP tumor, the LNCaP tumor as well as for the kidneys of each tumor mouse model based on non-decay - corrected time-dependent biodistribution data. For these calculations, the radioligand uptake in the tumors and the kidney s at t = 0 h p.i. was set to 0% IA/g.

[3] = PC-3 PIP model, 4 h p.i., 0.05 nmol
[4] = PC-3 PIP model, 24 h p.i., 0.05 nmol
[5] = PC-3 PIP model, 48 h p.i., 0.05 nmol

Procedure for LNCaP tumor cells: The cells were cultured in RPMI-1640 cell culture medium supplemented with 10% fetal calf serum, L-glutamine, and antibiotics. Puromycin (2 μg/mL) was used to maintain PSMA expression as previously reported [24]. […] The cells were cultured under standard cell culture conditions in RPMI-1640 medium supplemented with 10% fetal calf serum, L-glutamine, antibiotics, and pyruvate (1 mM).
In brief, PC-3 PIP and LNCaP tumor cells were seeded in 12-well plates (3 × 10^5 cells and 1 × 10^6 cells in 2 mL medium/well, respectively) and incubated overnight. Both PSMA radioligands were applied at variable molar concentrations (0.75–500 nM) but at a constant activity concentration of 37.5 kBq/mL. The tumor cells were incubated for 4 h followed by washing steps and detachment of the cells for counting in a γ-counter (Perkin Elmer, Wallac Wizard 1480). The studies were performed in three independent experiments of six replicates. Statistical analysis was performed using a two-way ANOVA with Tukey’s and Sidak’s multiple comparison post-test in Graph Pad Prism (version 8) for different concentrations of the same radioligand and for the two radioligands at the same concentration, respectively. A p value of < 0.05 was considered statistically significant.
Both tumor cell types were kept in a humidified atmosphere at 37 °C and 5% CO2. Routine cell culture
was performed twice a week using PBS/EDTA (2 mM) and trypsin for cell detachment.
internalization of the radioligands into PC-3 PIP and LNCaP tumor cells.
Methods: Uptake and internalization studies were performed with PC-3 PIP and LNCaP tumor cells
using variable concentrations of the respective ligand but constant activity concentrations. PC-3 PIP
and LNCaP cells were seeded in 12-well plates and incubated at 37 °C and 5% CO2 overnight.
Experiments with LNCaP cells were performed with poly -L-lysine-coated well plates to ensure better
cell adherence. The radioligand solution was diluted using saline containing 0.05% bovine serum
albumin (BSA) to avoid adherence to the vial. A defined volume of 25 µL (corresponding to 37.5 kBq)
of this solution was added to the cell monolayers after the addition of 975 µL cell culture medium
without supplements. The final molar concentrations in each well ranged from 0.75 nM to 500 nM.
After incubation of the cells for 4 h, several washing steps were performed using PBS for determination

Q: Which “Absolute amount of internalized radioligand” value (LNCaP tumor cells; 0.00075 µM) does the source give for `CC(C)Cc1ccc(C(C)C(=O)NC(CCN)C(=O)NCCCCC(NC(=O)CN2CCN(CC(=O)O)CCN(CC(=O)O)CCN(CC(=O)O)CC2)C(=O)NCC2CCC(C(=O)NC(Cc3ccc4ccccc4c3)C(=O)NCCCCC(NC(=O)NC(CCC(=O)O)C(=O)O)C(=O)O)CC2)cc1` (centres unmarked) [[^177Lu]Lu-Ibu-DAB-PSMA, metal not drawn] here?
A: Its value is 14–21 % of total added activity.

Q: What about the Internalized fraction (LNCaP tumor cells; 4 h) of the same compound?
A: Its Internalized fraction is > 60 % of total uptake.

Q: What about the Cell uptake (LNCaP tumor cells; 4 h, 0.00075 µM) of the same compound?
A: The Cell uptake was ~ 34%.

Q: What about the Cell uptake (LNCaP tumor cells; 4 h, 0.0075 µM) of the same compound?
A: Its Cell uptake is ~ 16%.

Q: What about the Cell uptake (LNCaP tumor cells; 4 h, 0.025 µM) of the same compound?
A: The Cell uptake was ~ 6%.

Q: And the Cell uptake (LNCaP tumor cells; 4 h, 0.5 µM)?
A: Its Cell uptake is < 1%.

Q: What about the “Tumor accumulation in PC-3 PIP vs LNCaP tumor xenografts” value ([1]; 0.05 nmol) of the same compound?
A: Its value is “approximately fourfold”.

Q: And the “Tumor uptake in PC-3 PIP vs LNCaP tumor xenografts” value ([1]; 1.0 nmol)?
A: The value was 6 fold.

Q: And the “Kidney retention, low vs high amount of injected ligand” value ([1]; 4 h p.i., 0.05 nmol vs 1.0 nmol)?
A: Its value is “about fourfold”.

Q: What about the Kidney retention ([1]; 4 h p.i., high amount of injected ligand (1.0 nmol), range over both mouse models (PC-3 PIP data reproduced from earlier papers)) of the same compound?
A: The Kidney retention was 16–19 % IA/g.

Q: What about the Kidney retention ([1]; 4 h p.i., low amount of injected ligand (0.05 nmol), range over both mouse models) of the same compound?
A: The Kidney retention was 58–69 % IA/g.

Q: What about the “Renal retention of activity” value ([1]; 24 h p.i., irrespective of the injected ligand amount, range over both mouse models) of the same compound?
A: The value was 5.5–6.8 % IA/g.

Q: And the “PC-3 PIP tumor uptake, low vs high ligand amount” value ([2]; 0.05 nmol vs 1.0 nmol, 24 h and 48 h p.i.)?
A: The value was 1.5–1.6 fold.

Q: What about the “AUCTu(0→48 h)-to-AUCKi(0→48 h) ratio” value ([2]; 0.05 nmol) of the same compound?
A: Its value is 3.2 ± 0.5.

Q: And the “AUCTu(0→48 h)-to-AUCKi(0→48 h) ratio” value ([2]; 1.0 nmol)?
A: Its value is 5.6 ± 0.7.

Q: What about the “AUC0→48h, Kidneys” value ([2]; PC-3 PIP model, 0.05 nmol) of the same compound?
A: The value was 945 ± 97 % IA/g*h.

Q: What about the “AUC0→48h, PC-3 PIP tumor” value ([2]; PC-3 PIP model, 0.05 nmol) of the same compound?
A: The value was 3027 ± 206 % IA/g*h.

Q: What about the “Increase of tumor-to-kidney AUC0→48 h ratio for high vs low molar amount of injected ligand” value ([2]; PC-3 PIP model, 1.0 nmol vs 0.05 nmol) of the same compound?
A: The value was 1.8 fold.

Q: What about the “AUC0→48h, Kidneys” value ([2]; PC-3 PIP model, 1.0 nmol) of the same compound?
A: Its value is 388 ± 23 % IA/g*h.

Q: And the “AUC0→48h, PC-3 PIP tumor” value ([2]; PC-3 PIP model, 1.0 nmol)?
A: Its value is 2166 ± 153 % IA/g*h.

Q: What about the “Tissue distribution, Blood” value [2, 3] of the same compound?
A: The value was 1.3 ± 0.3 % IA/g.

Q: And the “Tissue distribution, Bone” value [2, 3]?
A: The value was 0.29 ± 0.06 % IA/g.

Q: And the “Tissue distribution, Heart” value [2, 3]?
A: Its value is 0.54 ± 0.12 % IA/g.

Q: And the “Tissue distribution, Intestines” value [2, 3]?
A: Its value is 0.29 ± 0.05 % IA/g.

Q: What about the “Tissue distribution, Kidneys” value [2, 3] of the same compound?
A: Its value is 69 ± 10 % IA/g.

Q: And the “Tissue distribution, Liver” value [2, 3]?
A: The value was 1.1 ± 0.1 % IA/g.

Q: What about the “Tissue distribution, Lung” value [2, 3] of the same compound?
A: Its value is 1.3 ± 0.3 % IA/g.

Q: What about the “Tissue distribution, Muscle” value [2, 3] of the same compound?
A: The value was 0.22 ± 0.06 % IA/g.

Q: What about the “Tissue distribution, PC-3 PIP tumor” value [2, 3] of the same compound?
A: The value was 81 ± 4 % IA/g.

Q: And the “Tissue distribution, PC-3 flu tumor” value [2, 3]?
A: Its value is 0.67 ± 0.10 % IA/g.

Q: What about the “Tissue distribution, Salivary glands” value [2, 3] of the same compound?
A: The value was 0.69 ± 0.18 % IA/g.

Q: What about the “Tissue distribution, Spleen” value [2, 3] of the same compound?
A: The value was 1.9 ± 0.4 % IA/g.

Q: And the “Tissue distribution, Stomach” value [2, 3]?
A: Its value is 0.33 ± 0.09 % IA/g.

Q: And the Tumor-to-blood ratio [2, 3]?
A: The Tumor-to-blood ratio was 65 ± 20.

Q: What about the Tumor-to-kidney ratio [2, 3] of the same compound?
A: Its Tumor-to-kidney ratio is 1.2 ± 0.2.

Q: And the Tumor-to-liver ratio [2, 3]?
A: The Tumor-to-liver ratio was 74 ± 8.

Q: And the “Tissue distribution, Blood” value [2, 4]?
A: The value was 0.23 ± 0.03 % IA/g.

Q: What about the “Tissue distribution, Bone” value [2, 4] of the same compound?
A: The value was 0.13 ± 0.04 % IA/g.

Q: What about the “Tissue distribution, Heart” value [2, 4] of the same compound?
A: Its value is 0.15 ± 0.02 % IA/g.

Q: What about the “Tissue distribution, Intestines” value [2, 4] of the same compound?
A: The value was 0.11 ± 0.03 % IA/g.

Q: What about the “Tissue distribution, Kidneys” value [2, 4] of the same compound?
A: Its value is 5.5 ± 1.0 % IA/g.

Q: What about the “Tissue distribution, Liver” value [2, 4] of the same compound?
A: Its value is 0.54 ± 0.13 % IA/g.

Q: And the “Tissue distribution, Lung” value [2, 4]?
A: The value was 0.27 ± 0.04 % IA/g.

Q: And the “Tissue distribution, Muscle” value [2, 4]?
A: Its value is < 0.10 % IA/g.

Q: What about the “Tissue distribution, PC-3 PIP tumor” value [2, 4] of the same compound?
A: Its value is 78 ± 14 % IA/g.

Q: What about the “Tissue distribution, PC-3 flu tumor” value [2, 4] of the same compound?
A: The value was 0.31 ± 0.05 % IA/g.

Q: What about the “Tissue distribution, Salivary glands” value [2, 4] of the same compound?
A: Its value is 0.21 ± 0.02 % IA/g.

Q: And the “Tissue distribution, Spleen” value [2, 4]?
A: The value was 0.42 ± 0.09 % IA/g.

Q: And the “Tissue distribution, Stomach” value [2, 4]?
A: Its value is 0.11 ± 0.02 % IA/g.

Q: What about the Tumor-to-blood ratio [2, 4] of the same compound?
A: Its Tumor-to-blood ratio is 341 ± 48.

Q: What about the Tumor-to-kidney ratio [2, 4] of the same compound?
A: Its Tumor-to-kidney ratio is 14 ± 2.

Q: What about the Tumor-to-liver ratio [2, 4] of the same compound?
A: The Tumor-to-liver ratio was 149 ± 34.

Q: What about the “Tissue distribution, Blood” value [2, 5] of the same compound?
A: The value was 0.13 ± 0.03 % IA/g.

Q: What about the “Tissue distribution, Bone” value [2, 5] of the same compound?
A: The value was < 0.10 % IA/g.

Q: What about the “Tissue distribution, Heart” value [2, 5] of the same compound?
A: The value was < 0.10 % IA/g.

Q: And the “Tissue distribution, Intestines” value [2, 5]?
A: Its value is < 0.10 % IA/g.

Q: And the “Tissue distribution, Kidneys” value [2, 5]?
A: Its value is 2.3 ± 0.4 % IA/g.

Q: And the “Tissue distribution, Liver” value [2, 5]?
A: Its value is 0.28 ± 0.03 % IA/g.

Q: And the “Tissue distribution, Lung” value [2, 5]?
A: The value was 0.18 ± 0.04 % IA/g.

Q: What about the “Tissue distribution, Muscle” value [2, 5] of the same compound?
A: The value was < 0.10 % IA/g.

Q: What about the “Tissue distribution, PC-3 PIP tumor” value [2, 5] of the same compound?
A: The value was 58 ± 9 % IA/g.

Q: And the “Tissue distribution, PC-3 flu tumor” value [2, 5]?
A: Its value is 0.17 ± 0.01 % IA/g.

Q: What about the “Tissue distribution, Salivary glands” value [2, 5] of the same compound?
A: Its value is 0.11 ± 0.02 % IA/g.

Q: And the “Tissue distribution, Spleen” value [2, 5]?
A: The value was 0.25 ± 0.05 % IA/g.

Q: And the “Tissue distribution, Stomach” value [2, 5]?
A: The value was 0.12 ± 0.08 % IA/g.

Q: What about the Tumor-to-blood ratio [2, 5] of the same compound?
A: The Tumor-to-blood ratio was 445 ± 51.

Q: And the Tumor-to-kidney ratio [2, 5]?
A: The Tumor-to-kidney ratio was 26 ± 2.

Q: And the Tumor-to-liver ratio [2, 5]?
A: The Tumor-to-liver ratio was 205 ± 10.
